These results are taken from ChEMBL document CHEMBL5724914, “Linking interpersonal differences in gut microbiota composition and drug biotransformation activity” (2024).

Data set [1] in a line: The drug is tested on Z-005 corresponding to metagenome with ENA study accession number: PRJEB37062 and ENA sample accession number: ERS12561805 for biotransformation under anaerobic condition. The drug concentrations were measured over 9 timepoints collected between 0 and 24 hours of incubation by liquid-chromatography-coupled mass spectrometry (LC–MS). The conditions noted are these: 2 µM.

Data set [2] can be described thus: The drug is tested on Z-027 corresponding to metagenome with ENA study accession number: PRJEB37062 and ENA sample accession number: ERS12561826 for biotransformation under anaerobic condition. The drug concentrations were measured over 9 timepoints collected between 0 and 24 hours of incubation by liquid-chromatography-coupled mass spectrometry (LC–MS). The conditions noted are these: 2 µM.

Data set [3] can be described thus: The drug is tested on Z-022 corresponding to mouse gut metagenome with ENA study accession number: PRJEB37062 and ENA sample accession number: ERS12561821 for biotransformation under anaerobic condition. The drug concentrations were measured over 9 timepoints collected between 0 and 24 hours of incubation by liquid-chromatography-coupled mass spectrometry (LC–MS). The following applies: 2 µM.

The conditions of data set [4]: human gut metagenome, 24 h, 2 µM.
For data set [5] the following is noted: human gut metagenome, 24 h, 2 µM. This is another data set of the same source.
For data set [6] the following is noted: human gut metagenome, 24 h, 2 µM. This is another data set of the same source.
The conditions of data set [7]: human gut metagenome, 24 h, 2 µM. This is another data set of the same source.
The conditions of data set [8]: human gut metagenome, 24 h, 2 µM. The source holds these as a separate data set.
The conditions of data set [9]: human gut metagenome, 24 h, 2 µM. The source holds these as a separate data set.
Data set [10] is described as follows: The drug is tested on Z-008 corresponding to metagenome with ENA study accession number: PRJEB37062 and ENA sample accession number: ERS12561808 for biotransformation under anaerobic condition. The drug concentrations were measured over 9 timepoints collected between 0 and 24 hours of incubation by liquid-chromatography-coupled mass spectrometry (LC–MS). The following applies: 2 µM.

Data set [11] is described as follows: The drug is tested on Z-012 corresponding to metagenome with ENA study accession number: PRJEB37062 and ENA sample accession number: ERS12561812 for biotransformation under anaerobic condition. The drug concentrations were measured over 9 timepoints collected between 0 and 24 hours of incubation by liquid-chromatography-coupled mass spectrometry (LC–MS). The conditions noted are these: 2 µM.

For data set [12] the following is noted: human gut metagenome, 24 h, 2 µM. The source holds these as a separate data set.
For data set [13] the following is noted: human gut metagenome, 24 h, 2 µM. The source holds these as a separate data set.
A short description of data set [14]: The drug is tested on WLS-077 corresponding to human gut metagenome with ENA study accession number: PRJEB37062 and ENA sample accession number: ERS12561750 for biotransformation under anaerobic condition. The drug concentrations were measured over 9 timepoints collected between 0 and 24 hours of incubation by liquid-chromatography-coupled mass spectrometry (LC–MS). The following applies: 2 µM.

The conditions of data set [15]: human gut metagenome, 24 h, 2 µM. The source holds these as a separate data set.
The nature of data set [16]: The drug is tested on Z-030 corresponding to mouse gut metagenome with ENA study accession number: PRJEB37062 and ENA sample accession number: ERS12561829 for biotransformation under anaerobic condition. The drug concentrations were measured over 9 timepoints collected between 0 and 24 hours of incubation by liquid-chromatography-coupled mass spectrometry (LC–MS). The conditions noted are these: 2 µM.

The nature of data set [17]: The drug is tested on Z-001 corresponding to mouse gut metagenome with ENA study accession number: PRJEB37062 and ENA sample accession number: ERS12561801 for biotransformation under anaerobic condition. The drug concentrations were measured over 9 timepoints collected between 0 and 24 hours of incubation by liquid-chromatography-coupled mass spectrometry (LC–MS). The following applies: 2 µM.

Data set [18] can be described thus: The drug is tested on Z-020 corresponding to rabbit gut metagenome with ENA study accession number: PRJEB37062 and ENA sample accession number: ERS12561819 for biotransformation under anaerobic condition. The drug concentrations were measured over 9 timepoints collected between 0 and 24 hours of incubation by liquid-chromatography-coupled mass spectrometry (LC–MS). The following applies: 2 µM.

Data set [19] can be described thus: The drug is tested on WLS-027 corresponding to human gut metagenome with ENA study accession number: PRJEB37062 and ENA sample accession number: ERS12561744 for biotransformation under anaerobic condition. The drug concentrations were measured over 9 timepoints collected between 0 and 24 hours of incubation by liquid-chromatography-coupled mass spectrometry (LC–MS). The conditions noted are these: 2 µM.

For data set [20] the following is noted: human gut metagenome, 24 h, 2 µM. The source holds these as a separate data set.

SMILES strings stand for the structures.
Also: call rule not given here.

`CCN(CC)CCNC(=O)c1ccc(NC(C)=O)cc1` [ACECAINIDE]: the “Bacterial Biotransformation” value in data set [1], in data set [2], in data set [3], in [4], in data set [5] and in data set [6] was “Compound NOT metabolized” each time. In addition, the “Bacterial Biotransformation” value is “Compound metabolized” in data set [7]; “Compound NOT metabolized” in data set [8]; “Compound NOT metabolized” in [9]; “Compound NOT metabolized” in data set [10]; “Compound NOT metabolized” in data set [11]; “Compound metabolized” in data set [12]. Besides, the “Bacterial Biotransformation” value in data set [13], in [14], in [15], in data set [16], in [17] and in [18] was “Compound NOT metabolized” throughout. For the same molecule, the “Bacterial Biotransformation” value in [19] and in [20] was “Compound NOT metabolized” throughout.

Turning to `Br.CN1CCC[C@@H]1Cc1c[nH]c2ccc(CCS(=O)(=O)c3ccccc3)cc12` [ELETRIPTAN HYDROBROMIDE], the “Bacterial Biotransformation” value in data set [1], in data set [2], in [3], in data set [4], in data set [5] and in data set [6] was “Compound NOT metabolized” in each case. In addition, the “Bacterial Biotransformation” value in [7] is listed as “Compound metabolized”; in [8], “Compound NOT metabolized”; in [9], “Compound NOT metabolized”; in data set [10], “Compound NOT metabolized”; in data set [11], “Compound NOT metabolized”; in [12], “Compound metabolized”. The “Bacterial Biotransformation” value in data set [13] is reported as “Compound metabolized”; in [14], “Compound NOT metabolized”; in data set [15], “Compound NOT metabolized”; in data set [16] it was “Compound NOT metabolized”; in data set [17], “Compound NOT metabolized”; in data set [18] it was “Compound NOT metabolized”. For the same molecule, the “Bacterial Biotransformation” value in data set [19] and in data set [20] was “Compound NOT metabolized” in each case.

With `CCc1cccc2c3c([nH]c12)C(CC)(CC(=O)O)OCC3` (stereo not given) [ETODOLAC], the “Bacterial Biotransformation” value in data set [1] is “Compound NOT metabolized”; in data set [2] it was “Compound NOT metabolized”; in data set [3], “Compound NOT metabolized”; in [4], “Compound NOT metabolized”; in [5], “Compound metabolized”; in data set [6], “Compound metabolized”. Moreover, the “Bacterial Biotransformation” value in data set [7] is recorded as “Compound metabolized”; in data set [8], “Compound metabolized”; in data set [9] it was “Compound NOT metabolized”; in [10], “Compound NOT metabolized”; in data set [11], “Compound NOT metabolized”; in data set [12] it was “Compound metabolized”. Besides, the “Bacterial Biotransformation” value is given as “Compound metabolized” in [13]; “Compound NOT metabolized” in data set [14]; “Compound metabolized” in data set [15]; “Compound NOT metabolized” in data set [16]; “Compound NOT metabolized” in data set [17]; “Compound NOT metabolized” in data set [18]. In addition, the “Bacterial Biotransformation” value in data set [19] and in data set [20] was “Compound metabolized” each time.

With `c1ccc2[nH]c(-c3cscn3)nc2c1` [THIABENDAZOLE], the “Bacterial Biotransformation” value in [1], in data set [2], in [3], in data set [4], in data set [5] and in [6] was “Compound NOT metabolized” throughout. In addition, the “Bacterial Biotransformation” value is “Compound metabolized” in [7]; “Compound NOT metabolized” in data set [8]; “Compound NOT metabolized” in data set [9]; “Compound NOT metabolized” in data set [10]; “Compound NOT metabolized” in [11]; “Compound metabolized” in data set [12]. Also, the “Bacterial Biotransformation” value in data set [13], in data set [14], in [15], in data set [16], in data set [17] and in data set [18] was “Compound NOT metabolized” each time. Further, the “Bacterial Biotransformation” value in [19] and in data set [20] was “Compound NOT metabolized” in each case.

Take `CCOc1cc(CC(=O)N[C@@H](CC(C)C)c2ccccc2N2CCCCC2)ccc1C(=O)O` [REPAGLINIDE]: the “Bacterial Biotransformation” value in data set [1], in [2], in data set [3], in [4], in [5] and in data set [6] was “Compound metabolized” each time. Moreover, the “Bacterial Biotransformation” value in [7], in data set [8], in data set [9], in data set [10], in [11] and in data set [12] was “Compound metabolized” in each case. In addition, the “Bacterial Biotransformation” value in data set [13] was “Compound metabolized”; in data set [14] it was “Compound metabolized”; in [15] it was “Compound metabolized”; in data set [16] it was “Compound NOT metabolized”; in [17], “Compound metabolized”; in data set [18], “Compound metabolized”. Also, the “Bacterial Biotransformation” value in data set [19] and in data set [20] was “Compound metabolized” throughout.
